# Results published in the NIST ThermoML archive (doi:10.1021/je0503554).
# “And” between values parts separate entries of the source, which are not always exact repeats. Identical values can stand only once. ± gives the expanded uncertainty stated by the source.
# Experiment: activity coefficient (dimensionless); of the first substance listed, at infinite dilution; xn = mol fraction of the nth substance listed
# Conditions: Liquid, Chromatography, x1 = 0
compound,measurement,setting,value
C=CCCCCCC [oct-1-ene] + CCCCCC[n+]1ccn(C)c1.O=S(=O)([N-]S(=O)(=O)C(F)(F)F)C(F)(F)F,activity coefficient,301.95 K,8.83 ± 0.6
same,activity coefficient,312.45 K,8.43 ± 0.58
same,activity coefficient,322.95 K,8.08 ± 0.55
same,activity coefficient,333.45 K,7.66 ± 0.52
same,activity coefficient,343.95 K,7.37 ± 0.5
same,activity coefficient,354.35 K,7.16 ± 0.49
CCCCC=O [pentanal] + CCCCCC[n+]1ccn(C)c1.O=S(=O)([N-]S(=O)(=O)C(F)(F)F)C(F)(F)F,activity coefficient,301.75 K,1.11 ± 0.07
same,activity coefficient,312.25 K,1.1 ± 0.07
same,activity coefficient,322.85 K,1.08 ± 0.068
same,activity coefficient,333.35 K,1.06 ± 0.067
same,activity coefficient,343.55 K,1.05 ± 0.066
same,activity coefficient,354.05 K,1.03 ± 0.065
same,activity coefficient,364.45 K,1.01 ± 0.063
same,activity coefficient,374.95 K,0.99 ± 0.062
CCCCCC=O [hexanal] + CCCCCC[n+]1ccn(C)c1.O=S(=O)([N-]S(=O)(=O)C(F)(F)F)C(F)(F)F,activity coefficient,333.15 K,1.2 ± 0.077
same,activity coefficient,343.55 K,1.21 ± 0.078
same,activity coefficient,354.05 K,1.23 ± 0.079
same,activity coefficient,364.45 K,1.24 ± 0.08
same,activity coefficient,374.95 K,1.26 ± 0.081
CCCCc1ccccc1 [butylbenzene] + CCCCCC[n+]1ccn(C)c1.O=S(=O)([N-]S(=O)(=O)C(F)(F)F)C(F)(F)F,activity coefficient,354.25 K,2.72 ± 0.19
same,activity coefficient,364.65 K,2.69 ± 0.18
same,activity coefficient,375.15 K,2.66 ± 0.18
same,activity coefficient,385.65 K,2.62 ± 0.18
OC1CCCCC1 [cyclohexanol] + CCCCCC[n+]1ccn(C)c1.O=S(=O)([N-]S(=O)(=O)C(F)(F)F)C(F)(F)F,activity coefficient,354.05 K,1.87 ± 0.13
same,activity coefficient,364.55 K,1.6 ± 0.11
same,activity coefficient,374.95 K,1.43 ± 0.09
same,activity coefficient,385.45 K,1.29 ± 0.08
same,activity coefficient,395.95 K,1.2 ± 0.08
C=CCCC [1-pentene] + CCCCCC[n+]1ccn(C)c1.O=S(=O)([N-]S(=O)(=O)C(F)(F)F)C(F)(F)F,activity coefficient,301.95 K,3.63 ± 0.23
same,activity coefficient,312.45 K,3.54 ± 0.23
same,activity coefficient,322.95 K,3.43 ± 0.24
same,activity coefficient,333.45 K,3.39 ± 0.25
ClC(Cl)Cl [trichloromethane] + CCCCCC[n+]1ccn(C)c1.O=S(=O)([N-]S(=O)(=O)C(F)(F)F)C(F)(F)F,activity coefficient,301.75 K,0.67 ± 0.045
same,activity coefficient,301.85 K,0.67 ± 0.045
same,activity coefficient,312.25 K,0.68 ± 0.046
same,activity coefficient,312.45 K,0.68 ± 0.046
same,activity coefficient,322.85 K,0.69 ± 0.046
same,activity coefficient,323.05 K,0.7 ± 0.047
same,activity coefficient,333.45 K,0.71 ± 0.047
same,activity coefficient,343.95 K,0.72 ± 0.048
CCC(=O)OC [methyl propanoate] + CCCCCC[n+]1ccn(C)c1.O=S(=O)([N-]S(=O)(=O)C(F)(F)F)C(F)(F)F,activity coefficient,322.75 K,0.681 ± 0.046
same,activity coefficient,333.25 K,0.683 ± 0.046
same,activity coefficient,343.65 K,0.685 ± 0.046
same,activity coefficient,354.15 K,0.688 ± 0.046
CCCCCCC=O [heptanal] + CCCCCC[n+]1ccn(C)c1.O=S(=O)([N-]S(=O)(=O)C(F)(F)F)C(F)(F)F,activity coefficient,343.55 K,1.11 ± 0.07
same,activity coefficient,354.05 K,1.07 ± 0.068
same,activity coefficient,364.45 K,1.02 ± 0.064
same,activity coefficient,374.95 K,0.97 ± 0.061
same,activity coefficient,385.35 K,0.92 ± 0.058
same,activity coefficient,395.95 K,0.9 ± 0.057
C=CCCCCCCCCC [1-undecene] + CCCCCC[n+]1ccn(C)c1.O=S(=O)([N-]S(=O)(=O)C(F)(F)F)C(F)(F)F,activity coefficient,322.65 K,21 ± 1.4
same,activity coefficient,333.15 K,19.2 ± 1.3
same,activity coefficient,343.75 K,17.4 ± 1.2
same,activity coefficient,359.4 K,15.4 ± 1.1
same,activity coefficient,369.85 K,14.3 ± 0.97
same,activity coefficient,375.05 K,14.1 ± 0.96
CC(C)CO [2-methyl-1-propanol] + CCCCCC[n+]1ccn(C)c1.O=S(=O)([N-]S(=O)(=O)C(F)(F)F)C(F)(F)F,activity coefficient,301.65 K,2.46 ± 0.17
same,activity coefficient,312.15 K,2.19 ± 0.15
same,activity coefficient,322.85 K,1.9 ± 0.13
same,activity coefficient,333.35 K,1.68 ± 0.11
CCCCCCCCCCCC [dodecane] + CCCCCC[n+]1ccn(C)c1.O=S(=O)([N-]S(=O)(=O)C(F)(F)F)C(F)(F)F,activity coefficient,333.35 K,39.6 ± 2.7
same,activity coefficient,343.75 K,36.4 ± 2.5
same,activity coefficient,354.25 K,34.2 ± 2.3
same,activity coefficient,364.75 K,30.3 ± 2.1
CCc1ccccc1 [ethylbenzene] + CCCCCC[n+]1ccn(C)c1.O=S(=O)([N-]S(=O)(=O)C(F)(F)F)C(F)(F)F,activity coefficient,322.85 K,1.55 ± 0.1
same,activity coefficient,333.35 K,1.55 ± 0.1
same,activity coefficient,343.85 K,1.54 ± 0.1
same,activity coefficient,354.25 K,1.53 ± 0.1
c1ccccc1 [benzene] + CCCCCC[n+]1ccn(C)c1.O=S(=O)([N-]S(=O)(=O)C(F)(F)F)C(F)(F)F,activity coefficient,301.65 K,0.779 and 0.778
same,activity coefficient,306.95 K,0.776 ± 0.051
same,activity coefficient,312.25 K,0.776 ± 0.051
same,activity coefficient,322.75 K,0.777 ± 0.051
same,activity coefficient,322.85 K,0.773 ± 0.051
same,activity coefficient,333.25 K,0.777 and 0.774
same,activity coefficient,343.75 K,0.769 ± 0.05
C1CCCCC1 [cyclohexane] + CCCCCC[n+]1ccn(C)c1.O=S(=O)([N-]S(=O)(=O)C(F)(F)F)C(F)(F)F,activity coefficient,300.95 K,5.65 ± 0.39
same,activity coefficient,312.25 K,5.23 ± 0.36
same,activity coefficient,322.85 K,4.9 ± 0.33
same,activity coefficient,333.25 K,4.59 ± 0.31
CCCCCCC [heptane] + CCCCCC[n+]1ccn(C)c1.O=S(=O)([N-]S(=O)(=O)C(F)(F)F)C(F)(F)F,activity coefficient,300.95 K,11.2 ± 0.76
same,activity coefficient,312.25 K,10.4 ± 0.71
same,activity coefficient,322.85 K,9.69 ± 0.66
same,activity coefficient,333.25 K,9.09 ± 0.62
same,activity coefficient,343.75 K,8.65 ± 0.59
CCCc1ccccc1 [propylbenzene] + CCCCCC[n+]1ccn(C)c1.O=S(=O)([N-]S(=O)(=O)C(F)(F)F)C(F)(F)F,activity coefficient,333.35 K,2.1 ± 0.14
same,activity coefficient,343.85 K,2.08 ± 0.14
same,activity coefficient,354.25 K,2.03 ± 0.14
same,activity coefficient,364.65 K,2.02 ± 0.14
same,activity coefficient,375.15 K,2 ± 0.14
same,activity coefficient,385.65 K,1.96 ± 0.13
C=CCCCCC [1-heptene] + CCCCCC[n+]1ccn(C)c1.O=S(=O)([N-]S(=O)(=O)C(F)(F)F)C(F)(F)F,activity coefficient,301.95 K,6.36 ± 0.43
same,activity coefficient,312.45 K,6.18 ± 0.42
same,activity coefficient,322.95 K,5.96 ± 0.41
same,activity coefficient,333.45 K,5.69 ± 0.39
same,activity coefficient,343.95 K,5.44 ± 0.37
same,activity coefficient,354.35 K,5.26 ± 0.36
CCCCCCC(=O)OC [methyl heptanoate] + CCCCCC[n+]1ccn(C)c1.O=S(=O)([N-]S(=O)(=O)C(F)(F)F)C(F)(F)F,activity coefficient,354.15 K,1.6 ± 0.11
same,activity coefficient,364.65 K,1.52 ± 0.1
same,activity coefficient,375.15 K,1.44 ± 0.09
same,activity coefficient,385.65 K,1.38 ± 0.09
CCCC(=O)OC [methyl butanoate] + CCCCCC[n+]1ccn(C)c1.O=S(=O)([N-]S(=O)(=O)C(F)(F)F)C(F)(F)F,activity coefficient,322.75 K,0.868 ± 0.055
same,activity coefficient,333.25 K,0.874 ± 0.056
same,activity coefficient,343.65 K,0.877 ± 0.056
same,activity coefficient,354.15 K,0.884 ± 0.056
CCCCCc1ccccc1 [pentylbenzene] + CCCCCC[n+]1ccn(C)c1.O=S(=O)([N-]S(=O)(=O)C(F)(F)F)C(F)(F)F,activity coefficient,364.65 K,3.38 ± 0.23
same,activity coefficient,375.15 K,3.37 ± 0.23
same,activity coefficient,385.65 K,3.37 ± 0.23
CCC=O [propanal] + CCCCCC[n+]1ccn(C)c1.O=S(=O)([N-]S(=O)(=O)C(F)(F)F)C(F)(F)F,activity coefficient,301.75 K,0.453 ± 0.036
same,activity coefficient,312.25 K,0.45 ± 0.036
same,activity coefficient,322.85 K,0.444 ± 0.036
same,activity coefficient,333.35 K,0.439 ± 0.035
CO [methanol] + CCCCCC[n+]1ccn(C)c1.O=S(=O)([N-]S(=O)(=O)C(F)(F)F)C(F)(F)F,activity coefficient,301.95 K,1.46 ± 0.1
same,activity coefficient,312.45 K,1.34 ± 0.09
same,activity coefficient,323.05 K,1.22 ± 0.08
same,activity coefficient,333.45 K,1.1 ± 0.07
same,activity coefficient,343.95 K,0.99 ± 0.06
same,activity coefficient,354.45 K,0.93 ± 0.06
CCCC=O [butanal] + CCCCCC[n+]1ccn(C)c1.O=S(=O)([N-]S(=O)(=O)C(F)(F)F)C(F)(F)F,activity coefficient,301.75 K,0.578 ± 0.041
same,activity coefficient,312.25 K,0.576 ± 0.041
same,activity coefficient,322.85 K,0.574 ± 0.041
same,activity coefficient,333.35 K,0.572 ± 0.041
Cc1ccccc1 [toluene] + CCCCCC[n+]1ccn(C)c1.O=S(=O)([N-]S(=O)(=O)C(F)(F)F)C(F)(F)F,activity coefficient,307.05 K,1.04 ± 0.07
same,activity coefficient,312.35 K,1.04 ± 0.07
same,activity coefficient,322.85 K,1.06 ± 0.07
same,activity coefficient,333.35 K,1.06 ± 0.07
same,activity coefficient,343.85 K,1.08 ± 0.07
CCCCCO [pentan-1-ol] + CCCCCC[n+]1ccn(C)c1.O=S(=O)([N-]S(=O)(=O)C(F)(F)F)C(F)(F)F,activity coefficient,333.25 K,2.18 ± 0.15
same,activity coefficient,343.75 K,2 ± 0.14
same,activity coefficient,354.05 K,1.8 ± 0.12
same,activity coefficient,364.55 K,1.63 ± 0.11
same,activity coefficient,374.95 K,1.51 ± 0.1
